Assays:
OXA-48 Enzyme = OXA-48 Enzyme (Klebsiella pneumoniae, UniProt Q6XEC0); test: Imipenem hydrolysis followed by UV absorbance slope, OXA-48 enzyme; type: biochemical; settings: for inhibition at 10 µM / OXA-48 Enzyme Inhibition %: C 10 μM; for OXA-48 Enzyme, effect in words: Inhibition %, IC50
Protocol: (§1) These tests were conducted by comparing UV absorbance slope measurements of impenem alone, and then imipenem with the concerned azetidinimines at given concentrations in the presence of the enzyme. It was thus possible to monitor the hydrolysis of imipenem. Lower the value of the slope, the higher is the percentage of inhibition of the enzyme.

NDM-1 Enzyme = NDM-1 Enzyme (Klebsiella pneumoniae, UniProt C7C422); test: Imipenem hydrolysis followed by UV absorbance slope, NDM-1 enzyme; type: biochemical; settings: for inhibition at 5 µM: C 5 μM
Chain of NDM-1 Enzyme (C7C422 29-270, looked up, species assumed): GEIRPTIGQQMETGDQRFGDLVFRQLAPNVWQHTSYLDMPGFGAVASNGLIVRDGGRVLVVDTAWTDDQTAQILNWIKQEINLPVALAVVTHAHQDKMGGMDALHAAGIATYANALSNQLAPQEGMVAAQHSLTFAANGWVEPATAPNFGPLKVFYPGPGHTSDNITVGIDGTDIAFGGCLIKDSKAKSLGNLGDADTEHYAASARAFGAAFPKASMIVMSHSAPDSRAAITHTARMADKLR
Protocol: as §1

KPC Enzyme = KPC Enzyme (Klebsiella pneumoniae, UniProt Q9F663); test: Imipenem hydrolysis followed by UV absorbance slope, KPC enzyme; type: biochemical; settings: for inhibition at 10 µM / KPC Enzyme Inhibition %: C 10 μM; for inhibition at 5 µM: C 5 μM
Chain of KPC Enzyme (Q9F663 25-293, looked up): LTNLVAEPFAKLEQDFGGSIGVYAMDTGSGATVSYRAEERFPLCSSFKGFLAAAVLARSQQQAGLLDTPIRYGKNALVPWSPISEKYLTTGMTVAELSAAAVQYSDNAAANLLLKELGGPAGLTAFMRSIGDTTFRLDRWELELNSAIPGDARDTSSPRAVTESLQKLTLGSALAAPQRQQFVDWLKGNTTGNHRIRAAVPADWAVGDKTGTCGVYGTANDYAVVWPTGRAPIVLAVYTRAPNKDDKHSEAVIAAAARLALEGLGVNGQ
Protocol: as §1

[1] = Stability tests of imipenem with increasing concentrations of tested molecules
Protocol: as §1
Stability tests of imipenem with increasing concentrations of tested molecules of the present invention (T4#1, i.e. compound #1 of table 4; T4#7 i.e. compound #7 of table 4; T4#9 i.e. compound #9 of table 4; T4#2 i.e. compound #2 of table 4) were also conducted (Table 2).

Chain of OXA-48 Enzyme (Q6XEC0 23-265, looked up, species assumed): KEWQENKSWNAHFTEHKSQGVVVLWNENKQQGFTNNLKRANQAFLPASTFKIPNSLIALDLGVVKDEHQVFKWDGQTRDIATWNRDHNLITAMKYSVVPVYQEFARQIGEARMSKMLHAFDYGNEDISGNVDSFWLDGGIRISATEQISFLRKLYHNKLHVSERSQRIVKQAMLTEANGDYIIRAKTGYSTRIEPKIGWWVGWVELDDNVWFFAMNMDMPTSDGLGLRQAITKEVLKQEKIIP

## COc1ccc(N2/C(=N/c3ccccc3)CC2c2ccccc2)cc1OC (stereo not shown)
OXA-48 Enzyme
  inhibition at 10 µM: 9%
NDM-1 Enzyme
  IC50: 5 to 10 µM
KPC Enzyme
  inhibition at 10 µM: 17%

## COc1cccc(N2/C(=N/c3ccccc3)CC2c2ccccc2)c1 (stereo not shown)
OXA-48 Enzyme
  IC50: > 50 µM
NDM-1 Enzyme
  IC50: 1.3 µM
KPC Enzyme
  IC50: 5 to 10 µM

## CC(C)(C)OC(=O)NCCOC(=O)c1ccc(C2C/C(=N\c3ccccc3)N2c2ccccc2)cc1 (stereo not shown)
OXA-48 Enzyme
  IC50: > 50 µM
NDM-1 Enzyme
  IC50: 2.9 µM

## c1ccc(/N=C2\CC(c3ccccc3)N2c2ccccc2)cc1 (stereo not shown)
OXA-48 Enzyme
  OXA-48 Enzyme Inhibition %: No measurable effect at 10 μM
NDM-1 Enzyme
  IC50: 1.2 µM
KPC Enzyme
  IC50: 6 µM

## CC(C)(C)OC(=O)COc1ccc(N2/C(=N/c3ccccc3)CC2c2ccc(Cl)cc2)cc1 (stereo not shown)
OXA-48 Enzyme
  IC50: > 50 µM
NDM-1 Enzyme
  IC50: 2.6 µM
KPC Enzyme
  IC50: 1.3 µM

## COc1ccc(N2/C(=N/c3ccccc3)CC2c2ccc3ccccc3c2)cc1 (stereo not shown)
OXA-48 Enzyme
  IC50: 10 to 20 µM
OXA-48 Enzyme; C 20 μM
  inhibition at 20 µM: 94%
NDM-1 Enzyme
  IC50: 2.5 to 5 µM
  inhibition at 5 µM: 94%
KPC Enzyme
  IC50: 5 to 7 µM
  inhibition at 10 µM: 99%

## COc1ccc(N2/C(=N/c3ccccc3)CC2c2ccccc2)cc1 (single isomer, unassigned) [Enantiomer 2]
NDM-1 Enzyme
  IC50: < 5 µM
NDM-1 Enzyme; C 10 μM
  inhibition at 10 µM: 95%
KPC Enzyme
  IC50: > 10 µM
  KPC Enzyme Inhibition %: 45%

## Oc1ccc(N2/C(=N/c3ccccc3)CC2c2ccc(Cl)cc2)cc1 (stereo not shown)
OXA-48 Enzyme
  IC50: > 10 µM
NDM-1 Enzyme
  IC50: 3.6 µM
KPC Enzyme
  IC50: 5 to 7 µM

## COc1cc(N2/C(=N/c3ccccc3)CC2c2ccccc2)cc(OC)c1OC (stereo not shown) [T4#7, (E)-N-(4-phenyl-1-(3,4,5-trimethoxyphenyl)azetidin-2-ylidene)aniline]
[1]; C 1 μM of tested molecule
  Slope (stability test of imipenem): 0
[1]; C 10 μM of tested molecule
  Slope (stability test of imipenem): 10
[1]; C 100 μM of tested molecule
  Slope (stability test of imipenem): 174

## COc1ccc(N2/C(=N/c3ccc(Cl)cc3)CC2c2ccccc2)cc1 (stereo not shown)
OXA-48 Enzyme
  IC50: > 50 µM
NDM-1 Enzyme; C 10 μM
  inhibition at 10 µM: 100%
KPC Enzyme
  IC50: 2 µM

## COc1ccc(N2/C(=N/c3ccc(I)cc3)CC2c2ccc(Cl)cc2)cc1 (stereo not shown)
OXA-48 Enzyme
  IC50: 7.5 µM
NDM-1 Enzyme
  IC50: 0.7 µM
KPC Enzyme
  IC50: 2.7 µM

## COc1ccc(N2/C(=N/c3ccccc3)CC2c2ccc(F)cc2)cc1 (stereo not shown)
OXA-48 Enzyme
  OXA-48 Enzyme, effect in words: No reported effect
NDM-1 Enzyme; C 10 μM
  inhibition at 10 µM: 9%
KPC Enzyme
  inhibition at 10 µM: 10%

## c1ccc(/N=C2\CC(c3ccccc3)N2c2ccc3c(c2)OCCO3)cc1 (stereo not shown)
OXA-48 Enzyme
  IC50: > 50 µM
NDM-1 Enzyme
  IC50: 1.3 µM
KPC Enzyme
  IC50: 5 to 10 µM

## COc1ccc(N2/C(=N/c3ccccc3)CC2c2ccc(Cl)cc2)cc1 (stereo not shown) [drawing 76]
OXA-48 Enzyme
  OXA-48 Enzyme IC50: Solubility problems
OXA-48 Enzyme; C 50 μM
  inhibition at 50 µM: 21%
NDM-1 Enzyme
  IC50: 2 to 5 µM
NDM-1 Enzyme; C 10 μM
  inhibition at 10 µM: 96%
KPC Enzyme; C 50 μM
  inhibition at 50 µM: 44%

## COC(=O)c1ccc(C2C/C(=N\c3ccccc3)N2c2ccccc2)cc1 (stereo not shown)
OXA-48 Enzyme
  inhibition at 10 µM: 3.5%
NDM-1 Enzyme
  IC50: 4.8 µM
KPC Enzyme
  inhibition at 10 µM: 6%

## Oc1ccc(N2/C(=N/c3ccccc3)CC2c2ccccc2)cc1 (stereo not shown)
OXA-48 Enzyme
  IC50: > 10 µM
NDM-1 Enzyme
  IC50: 0.8 µM
KPC Enzyme
  IC50: > 50 µM

## COc1ccc(C2C/C(=N\c3ccccc3)N2c2ccc(OC)cc2)cc1 (stereo not shown)
OXA-48 Enzyme
  inhibition at 10 µM: 3%
NDM-1 Enzyme
  IC50: 5 to 10 µM
NDM-1 Enzyme; C 10 μM
  inhibition at 10 µM: 67%
KPC Enzyme
  inhibition at 10 µM: 7%

## COc1cccc(N2/C(=N/c3ccccc3)CC2c2ccc(Cl)cc2)c1 (stereo not shown)
OXA-48 Enzyme
  IC50: > 50 µM
NDM-1 Enzyme
  IC50: 0.4 µM
KPC Enzyme
  IC50: 2.5 to 5 µM

## COc1ccc(N2/C(=N/c3ccc(Cl)cc3)CC2c2ccc(Cl)cc2)cc1 (stereo not shown)
OXA-48 Enzyme
  IC50: > 50 µM
NDM-1 Enzyme
  IC50: 0.5 µM
KPC Enzyme
  IC50: 2.9 µM

## COc1ccc(C2C/C(=N\c3ccccc3)N2c2ccccc2)cc1 (stereo not shown) [T4#2, (E)-N-(4-(4-methoxyphenyl)-1-phenylazetidin-2-ylidene)aniline]
[1]; C 1 μM of tested molecule
  Slope (stability test of imipenem): 3
[1]; C 10 μM of tested molecule
  Slope (stability test of imipenem): 30
[1]; C 100 μM of tested molecule
  Slope (stability test of imipenem): 321

## O=C(O)c1ccc(C2C/C(=N\c3ccccc3)N2c2ccccc2)cc1 (stereo not shown)
OXA-48 Enzyme
  IC50: > 50 µM
NDM-1 Enzyme
  IC50: 0.7 µM
KPC Enzyme
  IC50: > 50 µM

## COc1cc(N2/C(=N/c3ccccc3)CC2c2ccccc2)cc(OC)c1OC (stereo not shown) [drawing 75]
OXA-48 Enzyme
  OXA-48 Enzyme, effect in words: No reported effect
NDM-1 Enzyme
  IC50: > 50 µM
NDM-1 Enzyme; C 50 μM
  inhibition at 50 µM: 78%
KPC Enzyme
  IC50: > 50 µM

## COc1ccc(N2/C(=N/c3ccccc3)CC2c2cc(Cl)cc(Cl)c2)cc1 (stereo not shown)
OXA-48 Enzyme; C 5 μM
  inhibition at 5 µM: 15%
NDM-1 Enzyme
  IC50: 2.5 to 5 µM
  inhibition at 5 µM: 97%
KPC Enzyme
  IC50: 2.5 to 5 µM
  inhibition at 5 µM: 84%

## CCOc1ccc(N2/C(=N/c3ccccc3)CC2c2ccccc2)cc1 (stereo not shown)
OXA-48 Enzyme
  IC50: > 10 µM
  inhibition at 10 µM: 45%
NDM-1 Enzyme
  IC50: 0.5 to 5 µM
  inhibition at 5 µM: 100%
KPC Enzyme
  IC50: < 5 µM
  inhibition at 5 µM: 100%

## CSc1ccc(N2/C(=N/c3ccccc3)CC2c2ccccc2)cc1 (stereo not shown)
OXA-48 Enzyme
  inhibition at 10 µM: 15%
NDM-1 Enzyme
  IC50: < 1 µM
  inhibition at 5 µM: 98%
KPC Enzyme
  IC50: < 10 µM
KPC Enzyme; C 20 μM
  inhibition at 20 µM: 82%

## COc1ccc(C2C/C(=N\c3ccccc3)N2c2ccccc2)cc1 (stereo not shown) [drawing 77]
OXA-48 Enzyme
  OXA-48 Enzyme, effect in words: No reported effect
NDM-1 Enzyme
  IC50: > 10 µM
NDM-1 Enzyme; C 20 μM
  inhibition at 20 µM: 58%
KPC Enzyme; Inhibition %, IC50
  KPC Enzyme, effect in words: No reported effect

## c1ccc(COc2ccc(N3/C(=N/c4ccccc4)CC3c3ccccc3)cc2)cc1 (stereo not shown)
OXA-48 Enzyme
  inhibition at 10 µM: 31%
NDM-1 Enzyme
  IC50: 0.4 µM
KPC Enzyme
  inhibition at 10 µM: 86%

## [N-]=[N+]=NCc1ccc(C2C/C(=N\c3ccccc3)N2c2ccccc2)cc1 (stereo not shown)
OXA-48 Enzyme
  IC50: > 50 µM
NDM-1 Enzyme; C 10 μM
  inhibition at 10 µM: 100%
KPC Enzyme
  inhibition at 10 µM: 89%

## ClCc1ccc(C2C/C(=N\c3ccccc3)N2c2ccccc2)cc1 (stereo not shown)
OXA-48 Enzyme
  OXA-48 Enzyme Inhibition %: No measurable effect at 10 μM
NDM-1 Enzyme
  IC50: 2.5 µM
KPC Enzyme
  IC50: 6 µM

## O=C(O)COc1ccc(N2/C(=N/c3ccccc3)CC2c2ccc(Cl)cc2)cc1 (stereo not shown)
OXA-48 Enzyme
  IC50: > 50 µM
NDM-1 Enzyme
  IC50: 0.6 µM
KPC Enzyme
  IC50: > 50 µM

## COc1ccc(N2/C(=N/c3ccccc3)CC2c2ccccc2)cc1 (single isomer, unassigned) [Enantiomer 1]
NDM-1 Enzyme
  IC50: < 5 µM
NDM-1 Enzyme; C 10 μM
  NDM-1 Enzyme Inhibition %: 97%
KPC Enzyme
  IC50: < 10 µM
  KPC Enzyme Inhibition %: 70%

## COc1ccc(N2/C(=N/c3ccc(I)cc3)CC2c2ccccc2)cc1 (stereo not shown)
OXA-48 Enzyme
  IC50: 9.2 µM
NDM-1 Enzyme
  IC50: 1.1 µM
KPC Enzyme
  IC50: 3.3 µM

## CCOc1ccc(N2/C(=N/c3ccc(I)cc3)CC2c2ccc3ccccc3c2)cc1 (stereo not shown)
OXA-48 Enzyme
  IC50: 6.2 µM
NDM-1 Enzyme
  IC50: 0.5 µM
KPC Enzyme
  IC50: 2.5 µM

## COc1ccc(N2/C(=N/c3ccccc3)CC2c2ccccc2)cc1 (stereo not shown) [T4#1]
[1]; C 1 μM of tested molecule
  Slope (stability test of imipenem): 9
[1]; C 10 μM of tested molecule
  Slope (stability test of imipenem): 50
[1]; C 100 μM of tested molecule
  Slope (stability test of imipenem): 506

## c1ccc(/N=C2\CC(c3ccccc3)N2c2ccc3c(c2)OCO3)cc1 (stereo not shown)
OXA-48 Enzyme
  inhibition at 10 µM: 20%
NDM-1 Enzyme
  IC50: 5 µM
KPC Enzyme
  inhibition at 10 µM: 6%

## COc1ccc(N2/C(=N/c3ccc(I)cc3)CC2c2cc(Cl)cc(Cl)c2)cc1 (stereo not shown)
OXA-48 Enzyme
  IC50: 8.5 µM
NDM-1 Enzyme
  IC50: 0.5 µM
KPC Enzyme
  IC50: 2.9 µM

## CCOc1ccc(N2/C(=N/c3ccc(OC)cc3)CC2c2ccc3ccccc3c2)cc1 (stereo not shown)
OXA-48 Enzyme
  IC50: 7.4 µM
NDM-1 Enzyme
  IC50: 0.6 µM
KPC Enzyme
  IC50: 2.4 µM

## CC(C)(C)OC(=O)c1ccc(C2C/C(=N\c3ccccc3)N2c2ccccc2)cc1 (stereo not shown)
OXA-48 Enzyme
  inhibition at 10 µM: 32%
NDM-1 Enzyme
  IC50: 1.8 µM
KPC Enzyme
  inhibition at 10 µM: 45%

## COc1ccc(N2/C(=N/c3ccccc3)CC2c2ccc(Cl)cc2)cc1 (stereo not shown) [T4#9, (E)-N-(4-(4-chlorophenyl)-1-(4-methoxyphenyl)azetidin-2-ylidene)aniline]
[1]; C 1 μM of tested molecule
  Slope (stability test of imipenem): 2
[1]; C 10 μM of tested molecule
  Slope (stability test of imipenem): 38
[1]; C 100 μM of tested molecule
  Slope (stability test of imipenem): 390

## COc1ccc(N2/C(=N/c3ccc(C(F)(F)F)cc3)CC2c2ccc(Cl)cc2)cc1 (stereo not shown)
OXA-48 Enzyme
  IC50: > 50 µM
NDM-1 Enzyme; C 10 μM
  inhibition at 10 µM: 100%
KPC Enzyme
  IC50: 3.6 µM

## COc1ccccc1N1/C(=N/c2ccccc2)CC1c1ccc(Cl)cc1 (stereo not shown)
OXA-48 Enzyme
  IC50: > 50 µM
NDM-1 Enzyme
  IC50: 1.1 µM
KPC Enzyme
  IC50: 5 to 10 µM

## COc1ccc(N2/C(=N/c3ccccc3)CC2c2cccnc2)cc1 (stereo not shown)
OXA-48 Enzyme
  OXA-48 Enzyme, effect in words: No reported effect
NDM-1 Enzyme
  IC50: > 100 µM
NDM-1 Enzyme; C 100 μM
  inhibition at 100 µM: 23%
KPC Enzyme
  IC50: > 100 µM
KPC Enzyme; C 100 μM
  inhibition at 100 µM: 12%

## COc1ccc(N2/C(=N/c3ccccc3)CC2c2ccccc2)cc1 (stereo not shown) [drawing 74]
OXA-48 Enzyme
  OXA-48 Enzyme, effect in words: No reported effect
NDM-1 Enzyme
  IC50: 2 to 5 µM
NDM-1 Enzyme; C 10 μM
  inhibition at 10 µM: 90%
KPC Enzyme
  IC50: ~7 µM

Reference: US11174226B2, “Azetidinimines as carbapenemases inhibitors” (priority 2015, dated 2021)
